Tested on: 636577-100-R-J1-PDC complex spheroid viability
Assay: Anticancer human tumor 636577-100-R-J1-PDC patient-derived endometrial adenocarcinoma cell line growth inhibition [GQUAD]
Settings: for IC50: curve of first compound; for viability, T/C: stronger effect = lower value
Procedure, shortened: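 Multi-cell-type spheroids of tumor cells with HUVEC and mesenchymal stem cells, treated with drug combinations. Concentrations descend in half-log steps from near clinical Cmax, or from 10 microM where Cmax is unknown; viability read-out.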

[1] = second compound 0.0316 µM, first compound 0.0316 µM
[2] = second compound 0.0316 µM, first compound 0.1 µM
[3] = second compound 0.0316 µM, first compound 0.316 µM
[4] = second compound 0.0316 µM, first compound 1 µM
[5] = second compound 0.0316 µM, first compound 3.16 µM
[6] = second compound 0.0316 µM, first compound 10 µM
[7] = second compound 0.1 µM, first compound 0.0316 µM
[8] = second compound 0.1 µM, first compound 0.1 µM
[9] = second compound 0.1 µM, first compound 0.316 µM
[10] = second compound 0.1 µM, first compound 1 µM
[11] = second compound 0.1 µM, first compound 3.16 µM
[12] = second compound 0.1 µM, first compound 10 µM
[13] = second compound 0.316 µM, first compound 0.0316 µM
[14] = second compound 0.316 µM, first compound 0.1 µM
[15] = second compound 0.316 µM, first compound 0.316 µM
[16] = second compound 0.316 µM, first compound 1 µM
[17] = second compound 0.316 µM, first compound 3.16 µM
[18] = second compound 0.316 µM, first compound 10 µM
[19] = second compound 1 µM, first compound 0.0316 µM
[20] = second compound 1 µM, first compound 0.1 µM
[21] = second compound 1 µM, first compound 0.316 µM
[22] = second compound 1 µM, first compound 1 µM
[23] = second compound 1 µM, first compound 3.16 µM
[24] = second compound 1 µM, first compound 10 µM
[25] = second compound 3.16 µM, first compound 0.0316 µM
[26] = second compound 3.16 µM, first compound 0.1 µM
[27] = second compound 3.16 µM, first compound 0.316 µM
[28] = second compound 3.16 µM, first compound 1 µM
[29] = second compound 3.16 µM, first compound 3.16 µM
[30] = second compound 3.16 µM, first compound 10 µM
[31] = second compound 10 µM, first compound 0.0316 µM
[32] = second compound 10 µM, first compound 0.1 µM
[33] = second compound 10 µM, first compound 0.316 µM
[34] = second compound 10 µM, first compound 1 µM
[35] = second compound 10 µM, first compound 3.16 µM
[36] = second compound 10 µM, first compound 10 µM
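Also: viability read after seven days of drug exposure.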
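For viability, T/C in this document: luminescence signal used as a proxy for viable cells; 100% = DMSO vehicle control wells.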

## O=C(NO)c1cnc(N2CCN(S(=O)(=O)c3ccc4ccccc4c3)CC2)nc1 + CN(C)c1ccc(Nc2c3ccc(NC(=O)CCN4CCCC4)cc3nc3cc(NC(=O)CCN4CCCC4)ccc23)cc1
Second compound 0.0316 µM
  IC50: < 31.6 nM
Second compound 0.1 µM
  IC50: < 31.6 nM
Second compound 0.316 µM
  IC50: < 31.6 nM
Second compound 1 µM
  IC50: < 31.6 nM
Second compound 3.16 µM
  IC50: < 31.6 nM
Second compound 10 µM
  IC50: < 31.6 nM
[1]
  viability, T/C: 30.3%
[2]
  viability, T/C: 14.9%
[3]
  viability, T/C: 6.37%
[4]
  viability, T/C: 6.45%
[5]
  viability, T/C: 0.17%
[6]
  viability, T/C: 0.08%
[7]
  viability, T/C: 34.5%
[8]
  viability, T/C: 15.9%
[9]
  viability, T/C: 6.15%
[10]
  viability, T/C: 6.73%
[11]
  viability, T/C: 0.15%
[12]
  viability, T/C: 0.08%
[13]
  viability, T/C: 30.4%
[14]
  viability, T/C: 18.8%
[15]
  viability, T/C: 6.26%
[16]
  viability, T/C: 5.85%
[17]
  viability, T/C: 0.15%
[18]
  viability, T/C: 0.1%
[19]
  viability, T/C: 26.3%
[20]
  viability, T/C: 15.7%
[21]
  viability, T/C: 7.08%
[22]
  viability, T/C: 7.15%
[23]
  viability, T/C: 0.24%
[24]
  viability, T/C: 0.08%
[25]
  viability, T/C: 25.1%
[26]
  viability, T/C: 15.6%
[27]
  viability, T/C: 8.28%
[28]
  viability, T/C: 6.85%
[29]
  viability, T/C: 0.21%
[30]
  viability, T/C: 0.08%
[31]
  viability, T/C: 7.11%
[32]
  viability, T/C: 4.48%
[33]
  viability, T/C: 5.08%
[34]
  viability, T/C: 6.28%
[35]
  viability, T/C: 0.12%
[36]
  viability, T/C: 0.08%

## CCCS(=O)(=O)Nc1ccc(F)c(C(=O)c2c[nH]c3ncc(-c4ccc(Cl)cc4)cc23)c1F + Cc1cnc(CNC(=O)c2c(=O)c3ccc(N4CCCN(C)CC4)nc3n3c2sc2ccccc23)cn1
Second compound 0.0316 µM
  IC50: < 31.6 nM
Second compound 0.1 µM
  IC50: < 31.6 nM
Second compound 0.316 µM
  IC50: < 31.6 nM
Second compound 1 µM
  IC50: < 31.6 nM
Second compound 3.16 µM
  IC50: < 31.6 nM
Second compound 10 µM
  IC50: < 31.6 nM
[1]
  viability, T/C: 41.1%
[2]
  viability, T/C: 40.1%
[3]
  viability, T/C: 61.3%
[4]
  viability, T/C: 33.9%
[5]
  viability, T/C: 44.3%
[6]
  viability, T/C: 24.2%
[7]
  viability, T/C: 32%
[8]
  viability, T/C: 31%
[9]
  viability, T/C: 33.2%
[10]
  viability, T/C: 31%
[11]
  viability, T/C: 29.8%
[12]
  viability, T/C: 21.4%
[13]
  viability, T/C: 24.1%
[14]
  viability, T/C: 25.8%
[15]
  viability, T/C: 29.9%
[16]
  viability, T/C: 27.4%
[17]
  viability, T/C: 26.9%
[18]
  viability, T/C: 15.7%
[19]
  viability, T/C: 17.6%
[20]
  viability, T/C: 24.2%
[21]
  viability, T/C: 27.4%
[22]
  viability, T/C: 26.8%
[23]
  viability, T/C: 24.9%
[24]
  viability, T/C: 14.7%
[25]
  viability, T/C: 17.5%
[26]
  viability, T/C: 21.9%
[27]
  viability, T/C: 22%
[28]
  viability, T/C: 25.1%
[29]
  viability, T/C: 22.7%
[30]
  viability, T/C: 15.4%
[31]
  viability, T/C: 20.2%
[32]
  viability, T/C: 22.1%
[33]
  viability, T/C: 18.5%
[34]
  viability, T/C: 21.1%
[35]
  viability, T/C: 21.7%
[36]
  viability, T/C: 6.34%

## COc1ccc([C@@H](O)c2cc(-c3ncnc4cc(N5CCOCC5)ccc34)c(F)cc2Cl)nn1 + Cc1cnc(CNC(=O)c2c(=O)c3ccc(N4CCCN(C)CC4)nc3n3c2sc2ccccc23)cn1
Second compound 0.0316 µM
  IC50: < 31.6 nM
Second compound 0.1 µM
  IC50: < 31.6 nM
Second compound 0.316 µM
  IC50: < 31.6 nM
Second compound 1 µM
  IC50: < 31.6 nM
Second compound 3.16 µM
  IC50: < 31.6 nM
Second compound 10 µM
  IC50: < 31.6 nM
[1]
  viability, T/C: 47.1%
[2]
  viability, T/C: 42.8%
[3]
  viability, T/C: 20%
[4]
  viability, T/C: 10.8%
[5]
  viability, T/C: 9.47%
[6]
  viability, T/C: 9.92%
[7]
  viability, T/C: 30.6%
[8]
  viability, T/C: 22%
[9]
  viability, T/C: 15.2%
[10]
  viability, T/C: 12.2%
[11]
  viability, T/C: 13.5%
[12]
  viability, T/C: 11.6%
[13]
  viability, T/C: 22.8%
[14]
  viability, T/C: 21.2%
[15]
  viability, T/C: 13%
[16]
  viability, T/C: 13.2%
[17]
  viability, T/C: 13.6%
[18]
  viability, T/C: 12.8%
[19]
  viability, T/C: 18.2%
[20]
  viability, T/C: 18.3%
[21]
  viability, T/C: 13.8%
[22]
  viability, T/C: 15.4%
[23]
  viability, T/C: 14.1%
[24]
  viability, T/C: 10.8%
[25]
  viability, T/C: 20.3%
[26]
  viability, T/C: 17.9%
[27]
  viability, T/C: 18%
[28]
  viability, T/C: 16.1%
[29]
  viability, T/C: 16.6%
[30]
  viability, T/C: 13.6%
[31]
  viability, T/C: 19.5%
[32]
  viability, T/C: 21.2%
[33]
  viability, T/C: 19.6%
[34]
  viability, T/C: 18.5%
[35]
  viability, T/C: 16.5%
[36]
  viability, T/C: 14.5%
